49 compounds from ChEMBL document CHEMBL2440096, “Synthesis, structure analysis, antitumor evaluation and 3D-QSAR studies of 3,6-disubstituted-dihydro-1,2,4,5-tetrazine derivatives” (Bioorg Med Chem Lett, 2013) can be followed below.

The subject of one experiment is P388. The experiment is described as follows: Antiproliferative activity against mouse P388 cells by MTT assay. Format: functional, cell-based.
The next experiment has as its system A549. The experiment is described as follows: Antiproliferative activity against human A549 cells by SRB assay. The experiment is classed as functional, cell-based. A general note: Sulforhodamine B stains cellular protein and so reports cell mass.

As to `COC(=O)N1N=C(c2ccc(Cl)cc2)NN=C1c1ccc(Cl)cc1`, the IC50 was 34.9 µM in the experiment with P388, 49.4 µM in the experiment on A549 (read-out: IC50) and 49.4 µM with A549 (read-out: pIC50 (converted)).
With `CC(C)CCOC(=O)N1N=C(c2ccccc2)NN=C1c1ccccc1`, the IC50 in the experiment on P388 is 24.6 µM; in the experiment with A549 (read-out: IC50), 44.2 µM; with A549 (read-out: pIC50 (converted)) it was 44.2 µM.
On to `CCCC1=NN(C(=O)Nc2cccc(C)c2)C(CCC)=NN1C(=O)Nc1cccc(C)c1`, for which the IC50 in the experiment with A549 (read-out: IC50) and in the experiment with A549 (read-out: pIC50 (converted)) was 1 µM each time.
Regarding `COC(=O)N1N=C(c2cccc([N+](=O)[O-])c2)N(C(=O)OC)N=C1c1cccc([N+](=O)[O-])c1`, the IC50 in the experiment with A549 (read-out: IC50) and in the experiment with A549 (read-out: pIC50 (converted)) was 83.6 µM each time.
As to `O=C(OCCCl)N1N=C(c2ccccc2)NN=C1c1ccccc1`, the IC50 in the experiment on P388 was above 100 µM; in the experiment on A549 (read-out: IC50), 101 µM.
Regarding `O=C(Oc1ccccc1)N1C(c2ccc(C(F)(F)F)cc2)=NN=C(c2ccc(C(F)(F)F)cc2)N1C(=O)Oc1ccccc1`, the IC50 is 26.6 µM in the experiment with P388 and 14.5 µM in the experiment with A549 (read-out: IC50).
Regarding `CCCCCOC(=O)N1N=C(c2ccccc2)NN=C1c1ccccc1`, the values for the IC50 in the experiment with P388, in the experiment on A549 (read-out: IC50) and with A549 (read-out: pIC50 (converted)) were 11.8 µM, 40.8 µM and 40.8 µM, respectively.
For the compound `CC(=O)N1N=C(c2ccc(C(F)(F)F)cc2)NN=C1c1ccc(C(F)(F)F)cc1`, the values for the IC50 in the experiment on A549 (read-out: IC50) and in the experiment on A549 (read-out: pIC50 (converted)) were 9.76 µM and 9.75 µM, respectively.
With `CCCOC(=O)N1C(c2ccc(C(F)(F)F)cc2)=NN=C(c2ccc(C(F)(F)F)cc2)N1C(=O)OCCC`, the IC50 in the experiment with P388 and in the experiment with A549 (read-out: IC50) was above 100 µM throughout.
On to `O=C(CCl)N1N=C(c2ccccc2)NN=C1c1ccccc1`, for which the IC50 in the experiment on A549 (read-out: IC50) and with A549 (read-out: pIC50 (converted)) was 1.85 µM in each case.
In the case of `COc1ccc(C2=NN(S(=O)(=O)c3ccccc3)C(c3ccc(OC)cc3)=NN2S(=O)(=O)c2ccccc2)cc1`, the IC50 was 58.8 µM in the experiment on A549 (read-out: IC50) and 58.7 µM in the experiment with A549 (read-out: pIC50 (converted)).
For the compound `CCCOC(=O)N1C(c2ccccc2)=NN=C(c2ccccc2)N1C(=O)OCCC`, the IC50 is 11.7 µM with P388 and above 100 µM in the experiment on A549 (read-out: IC50).
As for `COC(=O)N1C(c2ccc(C(F)(F)F)cc2)=NN=C(c2ccc(C(F)(F)F)cc2)N1C(=O)OC`, the IC50 in the experiment with P388 is 30.4 µM; in the experiment on A549 (read-out: IC50), 2.08 µM.
On to `CCC(=O)N1N=C(c2ccccc2)NN=C1c1ccccc1`, for which the IC50 with A549 (read-out: IC50) and in the experiment on A549 (read-out: pIC50 (converted)) was 48.3 µM in each case.
On to `CCCC1=NN(C(=O)Nc2ccccc2)C(CCC)=NN1C(=O)Nc1ccccc1`, for which the IC50 in the experiment on A549 (read-out: IC50) and in the experiment on A549 (read-out: pIC50 (converted)) was 5.42 µM each time.
Take `Oc1ccc(Cl)cc1C1=NN=C(c2cc(Cl)ccc2O)NN1`: the IC50 in the experiment on A549 (read-out: IC50) and in the experiment with A549 (read-out: pIC50 (converted)) was 13.2 µM each time.
Regarding `O=S(=O)(c1ccccc1)N1N=C(c2ccc(Cl)cc2)N(S(=O)(=O)c2ccccc2)N=C1c1ccc(Cl)cc1`, the IC50 in the experiment on A549 (read-out: IC50) and in the experiment with A549 (read-out: pIC50 (converted)) was 51.9 µM throughout.
As to `CCCC1=NN(C(=O)Nc2cccc(Cl)c2)C(CCC)=NN1C(=O)Nc1cccc(Cl)c1`, the IC50 with A549 (read-out: IC50) and in the experiment with A549 (read-out: pIC50 (converted)) was 1.1 µM in each case.
Regarding `COc1cc(NC(=O)N2N=C(C)N(C(=O)Nc3cc(OC)cc(OC)c3)N=C2C)cc(OC)c1`, the IC50 in the experiment with A549 (read-out: IC50) and with A549 (read-out: pIC50 (converted)) was 0.035 µM each time.
As for `COc1ccccc1NC(=O)N1N=C(c2ccccc2)NN=C1c1ccccc1`, the IC50 in the experiment with A549 (read-out: IC50) and with A549 (read-out: pIC50 (converted)) was 44.9 µM throughout.
As for `CCC(=O)N1N=C(c2ccc(C(F)(F)F)cc2)NN=C1c1ccc(C(F)(F)F)cc1`, the IC50 in the experiment with A549 (read-out: IC50) is 9.56 µM; in the experiment with A549 (read-out: pIC50 (converted)), 9.55 µM.
The corresponding values for `CC(=O)N1N=C(c2ccccc2)NN=C1c1ccccc1` are 44.7 µM and 44.7 µM.
Take `CC(C)C(=O)N1N=C(c2ccc(C(F)(F)F)cc2)NN=C1c1ccc(C(F)(F)F)cc1`: the IC50 with A549 (read-out: IC50) and in the experiment with A549 (read-out: pIC50 (converted)) was 31.6 µM each time.
Turning to `COC(=O)N1N=C(c2ccccc2)NN=C1c1ccccc1`, the IC50 with P388 was above 100 µM; in the experiment with A549 (read-out: IC50), 39.5 µM; in the experiment on A549 (read-out: pIC50 (converted)), 39.5 µM.
Take `COC(=O)N1N=C(c2cccc(Cl)c2)N(C(=O)OC)N=C1c1cccc(Cl)c1`: the values for the IC50 in the experiment on A549 (read-out: IC50) and in the experiment on A549 (read-out: pIC50 (converted)) were 89 µM and 88.9 µM, respectively.
On to `Clc1ccc(CC2=NNC(Cc3ccc(Cl)cc3)=NN2)cc1`, for which the IC50 in the experiment on A549 (read-out: IC50) and in the experiment on A549 (read-out: pIC50 (converted)) was 51.8 µM in each case.
For the compound `c1ccc(C2=NNC(c3ccccc3)=NN2)cc1`, the IC50 with A549 (read-out: IC50) and in the experiment on A549 (read-out: pIC50 (converted)) was 19.9 µM in each case.
Turning to `COC(=O)N1C(c2ccccc2)=NN=C(c2ccccc2)N1C(=O)OC`, the IC50 in the experiment with P388 and in the experiment with A549 (read-out: IC50) was above 100 µM each time.
Consider `O=S(=O)(c1ccccc1)N1N=C(c2ccccc2)N(S(=O)(=O)c2ccccc2)N=C1c1ccccc1`, for which the IC50 in the experiment with A549 (read-out: IC50) and in the experiment on A549 (read-out: pIC50 (converted)) was 74.1 µM each time.
In the case of `CCOC(=O)N1C(c2ccccc2)=NN=C(c2ccccc2)N1C(=O)OCC`, the IC50 with P388 was found to be 11.2 µM; in the experiment with A549 (read-out: IC50), 26.6 µM.
Regarding `CC1=NN(C(=O)Nc2cccc(C)c2)C(C)=NN1C(=O)Nc1cccc(C)c1`, the IC50 in the experiment with A549 (read-out: IC50) and in the experiment with A549 (read-out: pIC50 (converted)) was 0.574 µM in each case.
On to `FC(F)(F)c1ccc(C2=NN=C(c3ccc(C(F)(F)F)cc3)NN2)cc1`, for which the IC50 in the experiment with A549 (read-out: IC50) and with A549 (read-out: pIC50 (converted)) was 40 µM each time.
As for `CCOC(=O)N1C(c2ccc(C(F)(F)F)cc2)=NN=C(c2ccc(C(F)(F)F)cc2)N1C(=O)OCC`, the IC50 in the experiment with P388 was above 100 µM; with A549 (read-out: IC50), 51.1 µM.
Regarding `CCC1=NN(C(=O)Nc2cccc(C)c2)C(CC)=NN1C(=O)Nc1cccc(C)c1`, the IC50 with A549 (read-out: IC50) was 0.639 µM; with A549 (read-out: pIC50 (converted)), 0.64 µM.
As to `CC(C)C(=O)N1N=C(c2ccccc2)NN=C1c1ccccc1`, the IC50 with A549 (read-out: IC50) and in the experiment with A549 (read-out: pIC50 (converted)) was 2.22 µM in each case.
On to `CC1=NN(C(=O)Nc2cc(C)cc(C)c2)C(C)=NN1C(=O)Nc1cc(C)cc(C)c1`, for which the IC50 in the experiment on A549 (read-out: IC50) and in the experiment with A549 (read-out: pIC50 (converted)) was 3.66 µM throughout.
For the compound `CC1=NN(C(=O)Nc2cccc(O)c2)C(C)=NN1C(=O)Nc1cccc(O)c1`, the IC50 in the experiment with A549 (read-out: IC50) and in the experiment on A549 (read-out: pIC50 (converted)) was 5.55 µM each time.
For the compound `CCCOC(=O)N1N=C(c2ccccc2)NN=C1c1ccccc1`, the IC50 with P388 and in the experiment with A549 (read-out: IC50) was above 100 µM each time.
On to `CCCCN1N=C(C)N(CCCC)N=C1C`, for which the IC50 in the experiment on A549 (read-out: IC50) and with A549 (read-out: pIC50 (converted)) was 68.5 µM throughout.
For the compound `CC1=NN(C(=O)Nc2ccccc2O)C(C)=NN1C(=O)Nc1ccccc1O`, the IC50 in the experiment with A549 (read-out: IC50) and in the experiment with A549 (read-out: pIC50 (converted)) was 57.3 µM each time.
In the case of `O=C(CCl)N1N=C(c2ccc(C(F)(F)F)cc2)NN=C1c1ccc(C(F)(F)F)cc1`, the IC50 with A549 (read-out: IC50) and with A549 (read-out: pIC50 (converted)) was 8.53 µM each time.
Consider `CCOC(=O)N1N=C(c2ccc(C(F)(F)F)cc2)NN=C1c1ccc(C(F)(F)F)cc1`, for which the IC50 was 24.7 µM in the experiment on P388, 0.575 µM in the experiment on A549 (read-out: IC50) and 0.575 µM in the experiment with A549 (read-out: pIC50 (converted)).
As to `COC(=O)N1N=C(c2ccc(Cl)cc2Cl)N(C(=O)OC)N=C1c1ccc(Cl)cc1Cl`, the IC50 with A549 (read-out: IC50) and with A549 (read-out: pIC50 (converted)) was 79.3 µM in each case.
`O=C(OCC1CCCCC1)N1C(c2ccccc2)=NN=C(c2ccccc2)N1C(=O)OCC1CCCCC1`: the IC50 in the experiment with P388 and in the experiment with A549 (read-out: IC50) was above 100 µM in each case.
For the compound `O=C(OCC1CCCCC1)N1C(c2ccc(C(F)(F)F)cc2)=NN=C(c2ccc(C(F)(F)F)cc2)N1C(=O)OCC1CCCCC1`, the IC50 with P388 and in the experiment with A549 (read-out: IC50) was above 100 µM in each case.
As for `CCOC(=O)N1N=C(c2ccccc2)NN=C1c1ccccc1`, the IC50 in the experiment with P388 and in the experiment with A549 (read-out: IC50) was above 100 µM each time.
As for `Clc1ccc(C2=NN=C(c3ccc(Cl)cc3)NN2)cc1`, the IC50 with A549 (read-out: IC50) and in the experiment with A549 (read-out: pIC50 (converted)) was 51.8 µM each time.
With `Cc1ccc(S(=O)(=O)N2N=C(c3ccccc3)N(S(=O)(=O)c3ccc(C)cc3)N=C2c2ccccc2)cc1`, the IC50 is 85.8 µM with A549 (read-out: IC50) and 85.7 µM in the experiment on A549 (read-out: pIC50 (converted)).
In the case of `COC(=O)N1N=C(c2ccc(Cl)cc2)N(C(=O)OC)N=C1c1ccc(Cl)cc1`, the IC50 in the experiment with A549 (read-out: IC50) and in the experiment with A549 (read-out: pIC50 (converted)) was 76.7 µM in each case.
